≈ marks a conversion by molar mass, not a printed value.
Legend:
[1] = system: Staphylococcus aureus; assay: Antimicrobial activity against methicillin-resistant Staphylococcus aureus H 5996/08 after 24 hrs by broth microdilution method; type: functional; conditions: H 5996/08, 24 h
[2] = system: Aspergillus fumigatus; assay: Antimicrobial activity against Aspergillus fumigatus 231 after 48 hrs by broth microdilution test; type: functional; conditions: Aspergillus fumigatus, 231, 48 h
[3] = Lipophilicity, log P of compound by RP-HPLC analysis; type: physicochemical
[4] = system: Staphylococcus aureus; assay: Antimicrobial activity against methicillin-resistant Staphylococcus aureus H 5996/08 after 48 hrs by broth microdilution method; type: functional; conditions: H 5996/08, 48 h
[5] = system: Trichosporon beigelii; assay: Antimicrobial activity against Trichosporon beigelii 1188 after 48 hrs by broth microdilution test; type: functional; conditions: Trichosporon beigelii, 1188, 48 h
[6] = system: Pichia kudriavzevii; assay: Antimicrobial activity against Candida krusei ATCC 6258 after 24 hrs by broth microdilution test; type: functional; conditions: ATCC 6258, 24 h
[7] = system: Staphylococcus aureus; assay: Antimicrobial activity against Staphylococcus aureus CCM 4516/08 after 48 hrs by broth microdilution method; type: functional; conditions: CCM 4516/08, 48 h
[8] = system: Candida albicans; assay: Antimicrobial activity against Candida albicans ATCC 44859 after 24 hrs by broth microdilution test; type: functional; conditions: ATCC 44859, 24 h
[9] = system: Trichophyton mentagrophytes; assay: Antimicrobial activity against Trichophyton mentagrophytes 445 after 120 hrs by broth microdilution test; type: functional; conditions: Trichophyton mentagrophytes, 445, 120 h
[10] = system: Trichosporon beigelii; assay: Antimicrobial activity against Trichosporon beigelii 1188 after 24 hrs by broth microdilution test; type: functional; conditions: Trichosporon beigelii, 1188, 24 h
[11] = system: Staphylococcus aureus; assay: Antimicrobial activity against Staphylococcus aureus CCM 4516/08 after 24 hrs by broth microdilution method; type: functional; conditions: CCM 4516/08, 24 h
[12] = system: Trichophyton mentagrophytes; assay: Antimicrobial activity against Trichophyton mentagrophytes 445 after 72 hrs by broth microdilution test; type: functional; conditions: Trichophyton mentagrophytes, 445, 72 h
[13] = system: Candida albicans; assay: Antimicrobial activity against Candida albicans ATCC 44859 after 48 hrs by broth microdilution test; type: functional; conditions: ATCC 44859, 48 h
[14] = system: Pichia kudriavzevii; assay: Antimicrobial activity against Candida krusei ATCC 6258 after 48 hrs by broth microdilution test; type: functional; conditions: ATCC 6258, 48 h
[15] = system: Staphylococcus epidermidis; assay: Antimicrobial activity against Staphylococcus epidermidis H 6966/08 after 24 hrs by broth microdilution method; type: functional; conditions: H 6966/08, 24 h
[16] = system: Lichtheimia corymbifera; assay: Antimicrobial activity against Absidia corymbifera 272 after 48 hrs by broth microdilution test; type: functional; conditions: Lichtheimia corymbifera, 272, 48 h
[17] = system: Staphylococcus epidermidis; assay: Antimicrobial activity against Staphylococcus epidermidis H 6966/08 after 48 hrs by broth microdilution method; type: functional; conditions: H 6966/08, 48 h
[18] = system: Lichtheimia corymbifera; assay: Antimicrobial activity against Absidia corymbifera 272 after 24 hrs by broth microdilution test; type: functional; conditions: Lichtheimia corymbifera, 272, 24 h
[19] = system: Candida tropicalis; assay: Antimicrobial activity against Candida tropicalis 156 after 24 hrs by broth microdilution test; type: functional; conditions: Candida tropicalis, 156, 24 h
[20] = system: Aspergillus fumigatus; assay: Antimicrobial activity against Aspergillus fumigatus 231 after 24 hrs by broth microdilution test; type: functional; conditions: Aspergillus fumigatus, 231, 24 h
[21] = system: Nakaseomyces glabratus; assay: Antimicrobial activity against Candida glabrata 20/I after 24 hrs by broth microdilution test; type: functional
[22] = system: Nakaseomyces glabratus; assay: Antimicrobial activity against Candida glabrata 20/I after 48 hrs by broth microdilution test; type: functional
[23] = system: Candida tropicalis; assay: Antimicrobial activity against Candida tropicalis 156 after 48 hrs by broth microdilution test; type: functional; conditions: Candida tropicalis, 156, 48 h

Oc1ccccc1/C=C/c1ccc2cccc(O)c2n1
MIC90 [1]: 62.5 µM (≈ 16.5 µg/mL)
MIC50 [2]: > 500 µM
logP [3]: 3.95
MIC90 [4]: 125 µM (≈ 32.9 µg/mL)
MIC80 [5]: 62.5 µM (≈ 16.5 µg/mL)
MIC80 [6]: 31.2 µM (≈ 8.23 µg/mL)
MIC90 [7]: 62.5 µM (≈ 16.5 µg/mL)
MIC80 [8]: 31.2 µM (≈ 8.23 µg/mL)
MIC50 [9]: 62.5 µM (≈ 16.5 µg/mL)
MIC80 [10]: 31.2 µM (≈ 8.23 µg/mL)
MIC90 [11]: 62.5 µM (≈ 16.5 µg/mL)
MIC50 [12]: 31.2 µM (≈ 8.23 µg/mL)
MIC80 [13]: 62.5 µM (≈ 16.5 µg/mL)
MIC80 [14]: 62.5 µM (≈ 16.5 µg/mL)
MIC90 [15]: 62.5 µM (≈ 16.5 µg/mL)
MIC50 [16]: > 500 µM
MIC90 [17]: 125 µM (≈ 32.9 µg/mL)
MIC50 [18]: 62.5 µM (≈ 16.5 µg/mL)
MIC80 [19]: 125 µM (≈ 32.9 µg/mL)
MIC50 [20]: 500 µM (≈ 132 µg/mL)
MIC80 [21]: 31.2 µM (≈ 8.23 µg/mL)
MIC80 [22]: 31.2 µM (≈ 8.23 µg/mL)
MIC80 [23]: 500 µM (≈ 132 µg/mL)

Oc1cccc(/C=C/c2ccc3cccc(O)c3n2)c1
MIC90 [1]: 125 µM (≈ 32.9 µg/mL)
MIC50 [2]: > 125 µM
logP [3]: 3.95
MIC90 [4]: 125 µM (≈ 32.9 µg/mL)
MIC80 [5]: > 125 µM
MIC80 [6]: > 125 µM
MIC90 [7]: 125 µM (≈ 32.9 µg/mL)
MIC80 [8]: > 125 µM
MIC50 [9]: > 125 µM
MIC80 [10]: > 125 µM
MIC90 [11]: 125 µM (≈ 32.9 µg/mL)
MIC50 [12]: > 125 µM
MIC80 [13]: > 125 µM
MIC80 [14]: > 125 µM
MIC90 [15]: 250 µM (≈ 65.8 µg/mL)
MIC50 [16]: > 125 µM
MIC90 [17]: 500 µM (≈ 132 µg/mL)
MIC50 [18]: > 125 µM
MIC80 [19]: > 125 µM
MIC50 [20]: > 125 µM
MIC80 [21]: > 125 µM
MIC80 [22]: > 125 µM
MIC80 [23]: > 125 µM
